The record followed here is article PMC11407372, “New imidazolidindionedioximes and their Pt(II) complexes: synthesis and investigation of their antitumoral activities on breast cancer cells” (Turkish Journal of Chemistry, 2024).

In assay [1] the test system is CCD-1079Sk healthy fibroblast cell line. The assay can be described thus: MTT cytotoxicity assay. It counts as cell-based. The note with it: 24 h, mean ± standard deviation. The procedure: (§1) CCD-1079Sk healthy fibroblast cell line, MCF-7, and MDA-MB-231 breast cancer cell lines were used in this study. The cells were grown in DMEM/F12 medium containing 10% fetal bovine serum (FBS) and 100 U/mL penicillin/streptomycin at 37 °C in a humidified incubator with 5% CO2. After bringing 80% confluency, the cells were detached using a trypsin solution. For further experiments, cells were resuspended in the growth medium after collection and centrifugation.
(§2) To determine cytotoxicity, the MTT assay was performed using L1aPt-m, L1bPt-m, L1cPt-m, L1aPt-b, L1bPt-b, L1cPt-b, cisPt, and bicalutamide (bical) samples at 10 different concentrations ranging from 100 μM to 0.19 μM (100, 50, 25, 12.5, 6.25, 3.12, 1.56, 0.78, 0.39, and 0.19 μM). The samples were dissolved in DMSO and diluted with the medium. Initial DMSO concentration was kept below 1% to avoid toxicity from the solvent. Briefly, the cells were seeded to 96-well plates at 5 × 10^3 cells/well in a volume of 200 μL, and cells were inoculated overnight. After that, old medium was removed, 100 μL of fresh medium and 100 μL of sample were added to the wells. The cells were incubated with the samples for 24 h. At the end of incubation with the samples, 30 μL of 3-(4,5-dimethylthiazol-2-yl)-2,5-diphenyltetrazolium bromide (MTT) solution was added. After 3 h the medium was removed and 100 μL of DMSO was added to dissolve the formazan crystals. Then the absorbance values were recorded at 540 nm using an ELISA microplate reader (Synergy H1, BioTek). All the experiments were carried out in triplicates, and the results were presented as a mean ± standard deviation. The IC50 values of samples were calculated using a percentage of relative cell viability via GraphPad Prism 5. The viability percentages of cells were calculated using the following formula:
(§3) %relative cell viability=(Abssample/Abscontrol)×100.
For orientation: Formazan colour is commonly taken as a measure of viable cells.

Assay [2] relates to MCF-7 human breast cancer cell line. Nature of the assay: MTT cytotoxicity assay. It counts as cell-based. The note with it: mean ± standard deviation. Here is the method: as §1, §2, §3
The subject of assay [3] is MDA-MB-231 human breast cancer cell line. The assay can be described thus: MTT cytotoxicity assay. It counts as cell-based. The note with it: mean ± standard deviation. Here is the method: as §1, §2, §3
Assay [4] deals with CCD-1079Sk cells. Nature of the assay: Apoptosis assay (Annexin V/7-AAD, flow cytometry). The note with it: sample at IC50 concentration, 24 h. It counts as cell-based. The procedure:
(§4) FITC-Annexin V/7-AAD kit was used for the apoptosis experiment. Briefly, the cells were seeded into 12-well plates at 2 × 10^5 cells/well in 1 mL volume and cells were inoculated overnight. After that, 500 μL of fresh medium and 500 μL of sample at the concentration of IC50 were added to the wells. The cells were incubated with the samples for 24 h, then detached using 0.5 mL of trypsin solution, cells were collected and centrifuged at 3000 g for 3 min. The cells were washed with 200 μL of cell staining buffer, then dispersed in 100 μL of binding buffer. Following this, 5 μL of FITC-Annexin V and 10 μL of 7-AAD were added, and the mixture was incubated in the dark for 30 min. The samples were then analyzed by flow cytometry.
(§5) The Annexin V conjugated Alexa Fluor 488/7-AAD binding assay is based on the difference in fluorescence intensity between apoptotic and nonapoptotic cells stained with the fluorescent Annexin V/7-AAD, which is measured by flow cytometry. Therefore, an apoptosis assay was performed to determine the rate of live, apoptotic, and necrotic cells (Table 2, Figure S43). It is seen that compounds induce early and late apoptosis in MDA-MB-231 cells.

In assay [5] the test system is MCF-7 cells. Nature of the assay: Apoptosis assay (Annexin V/7-AAD, flow cytometry). It counts as cell-based, human. The note with it: sample at IC50 concentration, 24 h. The procedure:
as §4
The Annexin V conjugated Alexa Fluor 488/7-AAD binding assay is based on the difference in fluorescence intensity between apoptotic and nonapoptotic cells stained with the fluorescent Annexin V/7-AAD, which is measured by flow cytometry. Therefore, an apoptosis assay was performed to determine the rate of live, apoptotic, and necrotic cells (Table 2, Figure S43). […]
Background: A flow cytometer gives signals particle by particle.

Assay [6] relates to MDA-MB-231 cells. Nature of the assay: Apoptosis assay (Annexin V/7-AAD, flow cytometry). It counts as cell-based, human. The note with it: sample at IC50 concentration, 24 h. Here is the method:
as §4, §5

Assay [7] relates to MCF-7 cells. Nature of the assay: Cell cycle assay (PI, flow cytometry). It counts as cell-based, human. The note with it: sample at IC50 concentration, 24 h; 59.5% in control cells. Here is the method:
(§6) The cell cycle kit was used for the cell cycle experiment. Briefly, the cells were seeded into 12-well plates in a volume of 1 mL at 2 × 10^5 cells/well, and cells were inoculated overnight. After that, 500 μL of fresh medium and 500 μL of the sample at the concentration of IC50 were added to the wells. The cells were incubated with the samples for 24 h, then detached using 0.5 mL of trypsin solution, cells were collected and centrifuged at 3000 g for 3 min. The collecting cells were washed with 1 mL of PBS and fixed with 1 mL of 70% cold ethanol at −20 °C for 24 h. After that, 200 μL of staining solution containing propidium iodide (PI) and RNAse reagents were added to the cells, and the cells were incubated for 30 min in the dark. Cell cycle profiles of synthesized compounds were analyzed using a flow cytometer (BD Accuri C6). The data were analyzed through BD software. Each assay was investigated in triplicate.

The subject of assay [8] is MDA-MB-231 cells. Nature of the assay: Cell cycle assay (PI, flow cytometry). It counts as cell-based, human. The note with it: for MDA-MB-231 cell population in the G1-phase: sample at IC50 concentration, 24 h, 24.5% in control cells; for effect on cell cycle: summary in conclusion, MDA-MB-231 and/or MCF-7. The procedure: as §6

A word on the IC50: it is the point on the concentration scale where inhibition reaches its midpoint. Consider `CC(O)(CS(=O)(=O)c1ccc(F)cc1)C(=O)Nc1ccc(C#N)c(C(F)(F)F)c1` (centres unmarked) [Bical, bicalutamide, reference compound], for which, in assay [1] (Fibroblast), the IC50 stood at 9.16 ± 3.18 µM. The IC50 in assay [2] (Homo sapiens, MCF7, 24 h) was determined as 3.78 ± 1.85 µM. In addition, in assay [3] (Homo sapiens, MDA-MB-231, 24 h), the IC50 was determined as 8.34 ± 6.39 µM. For the same molecule, the “cell % Apoptotic, CCD-1079Sk” value in assay [4] came to 5.10 ± 0.21%. Also, in assay [5], the “cell % Apoptotic, MCF-7” value worked out at 2.05 ± 0.03% and the “cell % Necrotic, MCF-7” value was 6.35 ± 1.20%. In assay [6], the “cell % Apoptotic, MDA-MB-231” value is given as 6.70 ± 0.28% and the “cell % Necrotic, MDA-MB-231” value is listed as 1.95 ± 0.21%.
Consider `[O-]N=C1C(=NO)N(c2ccc(F)cc2)CN1c1ccc(F)cc1.[O-]N=C1C(=NO)N(c2ccc(F)cc2)CN1c1ccc(F)cc1.[Pt+2]` [L 1b Pt-b], for which the IC50 in assay [1] came out at 67.9 ± 5.11 µM. In assay [2] (24 h), the IC50 was 9.57 ± 5.41 µM. Besides, the IC50 in assay [3] (24 h) was 9.73 ± 7.28 µM. In assay [4], the “cell % Apoptotic, CCD-1079Sk” value is reported as 1.90 ± 0.07% and the “cell % Necrotic, CCD-1079Sk” value amounted to 1.25 ± 0.07%. In addition, in assay [5], the “cell % Apoptotic, MCF-7” value amounted to 2.95 ± 0.11% and the “cell % Necrotic, MCF-7” value is listed as 2.20 ± 0.14%. For the same molecule, in assay [6], the “cell % Apoptotic, MDA-MB-231” value is recorded as 7.45 ± 0.39% and the “cell % Necrotic, MDA-MB-231” value is on record as 2.65 ± 0.07%.
With `[O-]N=C1C(=NO)N(c2ccccc2)CN1c1ccccc1.[O-]N=C1C(=NO)N(c2ccccc2)CN1c1ccccc1.[Pt+2]` [L 1a Pt-b], the IC50 in assay [1] came out at 47.8 ± 6.42 µM. For the same molecule, the concentration for half-maximal inhibition (IC50) in assay [2] (24 h) came out at 5.58 ± 2.29 µM. Further, in assay [3] (24 h), the IC50 came out at 5.26 ± 5.53 µM. Also, the “MCF-7 cell population in the G1-phase” value in assay [7] was determined as 64.4%. In assay [8], the “MDA-MB-231 cell population in the G1-phase” value is recorded as 49.6%; the “effect on cell cycle” value was “regulate the cell cycle and increase the G1 population”. In addition, in assay [4], the “cell % Apoptotic, CCD-1079Sk” value is listed as 3.65 ± 0.03% and the “cell % Necrotic, CCD-1079Sk” value was 4.15 ± 0.21%. Besides, in assay [5], the “cell % Apoptotic, MCF-7” value turned out to be 4.65 ± 0.81% and the “cell % Necrotic, MCF-7” value is on record as 0.95 ± 0.35%. Moreover, in assay [6], the “cell % Apoptotic, MDA-MB-231” value worked out at 7.65 ± 0.25% and the “cell % Necrotic, MDA-MB-231” value was determined as 1.15 ± 0.07%.
Consider `O[N+]1=C2C(=[N+](O)[Pt-2]1([Cl])[Cl])N(c1ccc(F)cc1F)CN2c1ccc(F)cc1F` [L 1c Pt-m], for which the IC50 in assay [1] was 45.2 ± 5.55 µM. Also, in assay [2] (24 h), the IC50 was found to be 5.56 ± 2.39 µM. Moreover, the IC50 in assay [3] (24 h) amounted to 25 ± 6.61 µM. In addition, in assay [4], the “cell % Apoptotic, CCD-1079Sk” value turned out to be 3.45 ± 0.03% and the “cell % Necrotic, CCD-1079Sk” value worked out at 3.25 ± 0.07%. In assay [5], the “apoptosis induction in MCF-7 cells” value is “induces more cancerous cells to undergo apoptosis”; the “cell % Apoptotic, MCF-7” value amounted to 5.95 ± 0.46%; the “cell % Necrotic, MCF-7” value is reported as 3.40 ± 0.71%. Further, in assay [6], the “cell % Apoptotic, MDA-MB-231” value amounted to 6.20 ± 0.14% and the “cell % Necrotic, MDA-MB-231” value was 0.55 ± 0.07%.
In the case of `O[N+]1=C2C(=[N+](O)[Pt-2]1([Cl])[Cl])N(c1ccc(F)cc1)CN2c1ccc(F)cc1` [L 1b Pt-m], the IC50 in assay [1] was 54.6 ± 6.25 µM. For the same molecule, in assay [2] (24 h), the IC50 turned out to be 6.91 ± 3.16 µM. Moreover, in assay [3] (24 h), the IC50 is 8.64 ± 7.71 µM. Also, in assay [5], the “cell % Apoptotic, MCF-7” value is listed as 3.65 ± 0.18% and the “cell % Necrotic, MCF-7” value was determined as 0.95 ± 0.21%. Also, in assay [6], the “cell % Apoptotic, MDA-MB-231” value was 5.95 ± 0.25% and the “cell % Necrotic, MDA-MB-231” value is 0.65 ± 0.07%.
Turning to `N.N.[Cl][Pt][Cl]` [CisPt, cis-diamminedichloroplatinum(II), reference compound], the half-maximal inhibitory concentration (IC50) in assay [1] worked out at 27.9 ± 7.24 µM. The IC50 in assay [2] (24 h) came to 3.98 ± 1.44 µM. Besides, the IC50 in assay [3] (24 h) stood at 9.16 ± 7.74 µM. Besides, in assay [4], the “cell % Apoptotic, CCD-1079Sk” value is 5.00 ± 0.07% and the “cell % Necrotic, CCD-1079Sk” value was 3.90 ± 0.14%. Further, in assay [5], the “cell % Apoptotic, MCF-7” value amounted to 3.45 ± 0.03% and the “cell % Necrotic, MCF-7” value amounted to 1.10 ± 0.14%. For the same molecule, in assay [6], the “cell % Apoptotic, MDA-MB-231” value was determined as 14.95 ± 0.74% and the “cell % Necrotic, MDA-MB-231” value is recorded as 1.55 ± 0.21%.
Consider `O[N+]1=C2C(=[N+](O)[Pt-2]1([Cl])[Cl])N(c1ccccc1)CN2c1ccccc1` [L 1a Pt-m], for which the IC50 in assay [1] turned out to be 59.5 ± 5.34 µM. The IC50 in assay [2] (24 h) came to 8.97 ± 5.28 µM. Also, the IC50 in assay [3] (24 h) stood at 9.63 ± 7.71 µM. Besides, in assay [8], the “MDA-MB-231 cell population in the G1-phase” value is on record as 36.1%; the “effect on cell cycle” value was “regulate the cell cycle and increase the G1 population”. Further, in assay [4], the “cell % Apoptotic, CCD-1079Sk” value was determined as 2.65 ± 0.11%. In assay [5], the “apoptosis induction in MCF-7 cells” value is listed as “induces more cancerous cells to undergo apoptosis” and the “cell % Necrotic, MCF-7” value was 5.45 ± 1.06%. In assay [6], the “cell % Apoptotic, MDA-MB-231” value was 9.35 ± 0.46% and the “cell % Necrotic, MDA-MB-231” value is reported as 0.65 ± 0.21%.
Take `[O-]N=C1C(=NO)N(c2ccc(F)cc2F)CN1c1ccc(F)cc1F.[O-]N=C1C(=NO)N(c2ccc(F)cc2F)CN1c1ccc(F)cc1F.[Pt+2]` [L 1c Pt-b]: the IC50 in assay [1] turned out to be 73.9 ± 4.96 µM. Also, in assay [2] (24 h), the IC50 worked out at 5.9 ± 2.04 µM. Further, the IC50 in assay [3] (24 h) came to 6.94 ± 5.57 µM. Besides, the “MCF-7 cell population in the G1-phase” value in assay [7] was found to be 64.1%. In addition, in assay [8], the “effect on cell cycle” value was “regulate the cell cycle and increase the G1 population”. In addition, in assay [4], the “cell % Apoptotic, CCD-1079Sk” value stood at 1.85 ± 0.03% and the “cell % Necrotic, CCD-1079Sk” value is 1.80 ± 0.14%. Besides, in assay [5], the “apoptosis induction in MCF-7 cells” value is recorded as “induces more cancerous cells to undergo apoptosis”; the “cell % Apoptotic, MCF-7” value came out at 2.05 ± 0.03%; the “cell % Necrotic, MCF-7” value is listed as 5.35 ± 1.34%. In assay [6], the “cell % Apoptotic, MDA-MB-231” value was 8.00 ± 0.21% and the “cell % Necrotic, MDA-MB-231” value is 3.20 ± 0.14%.
